Test results taken from patent US20110009342A1, “USES OF PDCD5 POLYPEPTIDE FOR TUMOR CHEMOTHERAPY AND ORGAN PROTECTION” (priority 2008, published 2011).

Key:
HL-60 cells = experiment: cell apoptosis assay, As2O3; format: cell-based; settings: for rate of apoptosis: PDCD5 20 μg/mL where combined, 24 h
Experimental: Methods: Cell apoptosis assay: HL-60 cells (ATCC) of logarithmic growth phase were cultured and the density of cells was 2×10^5/mL. The cells were divided into control and test groups. In the control groups, the HL60 cells were treated only with As2O3 (Harbin Yida Pharmaceutical Co., Ltd.), and the final concentration of As2O3 were 0 μg/mL, 0.25 μg/mL and 0.5 μg/mL, respectively. In the test groups, the HL60 cells were treated with As2O3 in the various concentrations combined with PDCD5 in various concentrations, the final concentrations of PDCD5 being 0 μg/mL, 5 μg/mL, 10 μg/mL and 20 μg/mL, respectively. The cells were incubated in a 37° C., 5% CO2 and saturatedly humidified incubator for 24 h, and subsequently were stained with Annexin-V/PI and detected for apoptosis by flow cytometer.

HL60 cells = experiment: colony-forming ability (CFA) assay, As2O3; format: cell-based; settings: As2O3 0.25 μg/mL alone; 14 days
Experimental: (§1) Analysis for colony forming ability (CFA): U937 cells (ATCC), in the logarithmic phase, were maintained in RPMI 1640 medium supplemented with 20% FBS and 0.4% methyl cellulose (Sigma) by the semi-solid colony culture method and were adjusted to a density of 5×10^3 cells/mL. The cells were divided into control groups and test groups, and each group was assayed in triple wells. U937 cells in the control groups were treated with DNR alone, with the final concentrations of 0 ng/mL and 0.5 ng/mL. U937 cells in the test group were treated with DNR of various concentrations combined with PDCD5 of various concentrations, while the final concentrations of PDCD5 were 0 μg/mL, 0.625 μg/mL, 1.25 μg/mL, and 2.5 μg/mL, respectively. After incubation for 14 days in a 37° C., 5% CO2 and saturatedly humidified incubator, a colony with more than 30 cells was counted by an inverted microscope in order to analyze colony forming ability of each group. The colony forming ability was shown as the ratio of average number of colony in each group versus that of the untreated control group in which the final concentrations of DNR and PDCD5 were 0 μg/mL.
Colony-forming ability (CFA) assay: HL60 cells of logarithmic growth phase were cultured by a method identical to that in Example 8. The cells were divided into control and test groups (each with 3 wells): In the control groups, the HL60 cells were treated only with arsenic trioxide and the final concentration of which were 0 μg/mL and 0.25 μg/mL, respectively; in the test groups, the HL60 cells were treated with different concentrations of As2O3, which was combined with different concentrations of PDCD5, the final concentrations of PDCD5 were 0 μg/mL, 5 μg/mL, 10 μg/mL and 20 μg/mL, respectively. Cultures were incubated in a 37° C., 5% CO2 and saturatedly humidified incubator for 14 days. The numbers of colonies (containing≧30 cells) were counted on day 14 by inverted microscope. The colony-forming ability was observed as the ratio of the number of average colony formation in the test groups versus that in the untreated control group. […]

mouse livers = experiment: HE staining of liver paraffin sections of treated K562 xenograft mice; format: in vivo, BALB/c nu/nu mice; settings: no PDCD5; Imatinib 1.2 mg oral or IDR 25 μg i.p.; n=6
Experimental: (§2) Methods: BALB/c nu/nu female mice (6-8 weeks of age) were injected intraperitoneally with cyclophosphamide (CTX) (Jiangsu Hengrui Medicine Co., Ltd.), 2 mg/day per mouse for two days. One day after the second cyclophosphamide injection, 1.5×10^7 of K562 cells were injected subcutaneously into the single armpit of each of the mice. The mice bearing K562 cell xenografts were divided randomly into nine groups (n=6, i.e., six mice in each group) and each of the mice was i.p. treated, respectively, with normal saline, PDCD5, IDR (Sigma Corporation), and IDR plus PDCD5. […] At the end of the experiment, mice were killed. The mice were the same batch of that of Example 6. The excised liver of mice after treatment were fixed in 10% neutrally buffered formalin and then embedded in paraffin after dehydration. The paraffin embedding was cut and paraffin sections after HE staining were used to observe the necrosis of experimental mouse livers. Meanwhile, paraffin sections after Tunel (Roche Inc.) staining were used to observe the apoptosis of experimental mouse livers, and then the number of apoptotic cells was counted in five high-power microscope field for statistical analysis.

mice hearts = experiment: HE staining of heart paraffin sections of treated K562 xenograft mice; format: in vivo, BALB/c nu/nu mice; settings: no PDCD5; Imatinib 1.2 mg oral or IDR 25 μg i.p.; n=6
Experimental: as §2, with “hearts” for “liver”, “myocardial congestion, hemorrhage, and myofiber degeneration” for “necrosis”, “heart” for “experimental mouse livers. Meanwhile, paraffin sections after Tunel (Roche Inc.) staining were used to observe the apoptosis of experimental mouse livers, and then the number of apoptotic cells was counted”, “mice.” for “five high-power microscope field for statistical analysis.”

K562 cells = experiment: Annexin-V apoptosis by flow cytometry, Ara-C; format: cell-based; settings: Ara-C 0.1 μg/mL; PDCD5 60 μg/mL where combined; 48 hours
Experimental: Methods: Cell staining with FITC/Annexin-V and cell apoptosis detection in vitro by flow cytometry: K562 cells (ATCC) were maintained in RPMI 1640 (Life Technologies, USA) supplemented with 10% FBS (Hyclone, USA), and were plated in 24-well culture dishes to a density of 2×10^5 cells per well. rhPDCD5 protein was added in each well with a final concentration of 15 μg/mL, 30 μg/mL and 60 μg/mL, respectively. Chemotherapeutic drug Ara-C (Pharmacia, Italia) was then added with a final concentration of 0.1 μg/mL and RPMI 1640 medium supplemented with 10% FBS was added to bring the culture system to 1 mL. After incubation for 48 hours, the cells were stained with Annexin-V/PI (Biosea) and then were analyzed for apoptosis by flow cytometry.

Raji cells = experiment: colony-forming ability (CFA) assay, ADM; format: cell-based; settings: ADM 5 ng/mL alone; 14 days
Experimental: as §1, with “The colony forming ability was shown as the ratio of average number of colony in each group versus that of the untreated control group in which the final concentrations of DNR and PDCD5 were 0 μg/mL.” left out
Methods: Colony-forming ability (CFA) assay: Raji cells of logarithmic growth phase were cultured, and the method was the same as that in Example 8. […] The numbers of colonies (containing≧30 cells) were counted by inverted microscope to observe the CFA, which is indicated by the ratio of average number of colony formation in each of the test groups versus that of the untreated control group.

With arsenious acid [As2O3] the “enhancement of induced apoptosis” value (HL-60 cells) was “can enhance PDCD5-induced apoptosis”, the rate of apoptosis (HL-60 cells; high-dose As2O3 0.5 μg/mL) was 78.02% and the rate of apoptosis (HL-60 cells; low-dose As2O3 0.25 μg/mL) was 21.23%. For the same compound, the “CFA (ratio to untreated control)” value (HL60 cells) was 52%.

In the case of `Cc1ccc(NC(=O)c2ccc(CN3CCN(C)CC3)cc2)cc1Nc1nccc(-c2cccnc2)n1` [Imatinib], the “Sinusoidal expansion, congestive hemorrhage and necrosis of liver cells surrounding sinusoid: mice graded +” value (mouse livers) is reported as 2 number of mice, the “Sinusoidal expansion, congestive hemorrhage and necrosis of liver cells surrounding sinusoid: mice graded ++” value (mouse livers) is reported as 0 number of mice and the “Sinusoidal expansion, congestive hemorrhage and necrosis of liver cells surrounding sinusoid: mice graded +/−” value (mouse livers) is reported as 0 number of mice. For the same compound, the “Sinusoidal expansion, congestive hemorrhage and necrosis of liver cells surrounding sinusoid: mice graded −” value (mouse livers) was 4 number of mice, the “Myocardial hemorrhage and congestion: mice graded +” value (mice hearts) was 1 number of mice and the “Myocardial hemorrhage and congestion: mice graded ++” value (mice hearts) was 1 number of mice. The “Myocardial hemorrhage and congestion: mice graded −” value (mice hearts) was 4 number of mice, the “Myofiber degeneration: mice graded +” value (mice hearts) was 0 number of mice and the “Myofiber degeneration: mice graded −” value (mice hearts) was 6 number of mice.

Compound `Nc1ccn([C@@H]2O[C@H](CO)[C@@H](O)[C@@H]2O)c(=O)n1` [Ara-C, arabinoside] has an apoptosis rate (K562 cells) of 34.87%.

In the case of `COc1cccc2c1C(=O)c1c(O)c3c(c(O)c1C2=O)C[C@@](O)(C(=O)CO)C[C@@H]3O[C@H]1C[C@H](N)[C@H](O)[C@H](C)O1` [ADM, adriamycin], the “CFA (ratio to untreated control)” value (Raji cells) is reported as 32%.
